Measurements reported in US8653032B2, “Pharmaceutical composition for preventing / treating TRPV1 activity-related and inflammation-related diseases or conditions containing maillard peptide separated from well-aged traditional soy sauce as active ingredient” (Korea Food Research Institute, priority 2009, dated 2014).

System: COX-2
Assay: COX-2 promoter reporter gene (luciferase) assay, COX-2 induced with TPA, cells transfected with TRPV1 of human
Assay type: cell-based
Details: Maillard peptides 0.1% and 0.2%
Method: In order to measure COX-2 activity inhibition effect of Maillard peptides of the present invention, the following experiment was performed.
[…] cells were cultivated in the growth medium (DMEM, 10% calf serum, 100 units/ml penicillin, 100 μg/ml streptomycin) at 37° C., atmosphere: air 95% (v/v), carbon dioxide, 5% to generate cells growing exponentially; the medium was removed, washed with PBS, and treated with trypsin to separate the cultivated cells; and the separated cells were placed in the medium containing serum to inactivate trypsin. Centrifugal filtration was performed at 200/g for 2 min to obtain cell pellets. […] The transformed plasmid cells were washed with PBS, and dissolution buffer (125 mM Tris pH 7.8, 10 mM CDTA, 10 mM DTT, 50% glycerol, 5% triton X-100) was added to destroy the cells and obtain supernatant liquid, and the amount (concentration) of protein was quantified with Bradford assay. Luciferase activity was measured by adding 100 μl of buffer(20 mM trysin, 1.07 mM (MgCO3)4Mg(OH)2H20, 2.67 mM MgSO4, 0.1 mM EDTA, 33.3 mM DTT, 270 μM coenzyme A(Lithium salt), 470 μM luciferin, 530 μM ATP) and measuring light emission with Luminometer (LUMAT LB 9501/16) for 20 min. […]

For `C=C(C)[C@]12C[C@@H](C)[C@@]34O[C@](Cc5ccccc5)(O[C@@H]1[C@@H]3C=C(COC(=O)Cc1ccc(O)c(OC)c1)C[C@]1(O)C(=O)C(C)=C[C@@H]41)O2` [resiniferatoxin], the “COX-2 activity induced by TPA” value was “decreased”.
